Experimental data reported in patent US20260022322A1, “MULTIMODAL BIOPHYSICAL CHARACTERIZATION APPARATUS, SYSTEM, METHOD, AND USE” (Yigong Ruixin (Xiamen) Technology Co., Ltd, priority 2023, published 2026).

Key:
[1] = test system: tumor cells; experiment: Immune-tumor cell interaction on cell mechanics chip with drug intervention; format: cell-based
Text: S1. Prepare the chip: Select a cell mechanics chip with a micropillar structure. The top of the micropillars is coated with a suitable extracellular matrix (ECM) to promote the attachment and growth of tumor cells and immune cells. Use an anti-adhesion treatment on the side surfaces of the micropillars and in the space between them.
S2. Seed tumor cells and immune cells: Seed tumor cells and immune cells (such as NK cells or T cells) separately on the mechanics chip, allowing them to interact.
S3. Monitor the mechanical properties of the tumor cells: Use the light reflection signal and micropillar deflection to monitor in real-time the changes in the cell mechanical force and hardness of the tumor cells during their interaction with the immune cells.
S4. […] Softer tumor cells (with smaller cell mechanical force) are difficult for immune cells to recognize and kill.
S5. Drug intervention: Add the drug JAS, which makes tumor cells harder, to the culture medium, and observe the changes in the cell mechanical force and hardness of the tumor cells.
S6. Evaluate the effect of drug intervention: Under the action of the drug, the tumor cells become harder, and the cell mechanical force increases (FIG. 32). It was observed that the killing effect of immune cells on tumor cells was enhanced accordingly.

[2] = test system: macrophage cell line THP-1; experiment: Nuclear hardness of activated THP-1 by magnetic material method and fluorescence method; format: cell-based; details: THP-1 activated to M1-type macrophages
Text: S1: Provide a chip whose surface is covered with PDMS nano-magnetic micropillars. The micropillars contain a fluorescent substance and have an extracellular matrix coating.
S2: Culture the macrophage cell line THP-1 on this chip. Contact between the THP-1 cells and the chip is made by controlling the height of the culture medium.
S3: Add lipopolysaccharide (LPS) to the culture medium to activate the THP-1 cells, causing them to transform into M1-type macrophages.
S4: After several days of cultivation, use the magnetic material method to turn on the magnetic field and measure the reflected light attenuation. After turning off the magnetic field, measure the light reflection signal attenuation value and frequency of each micropillar, and sequentially calculate the softness/hardness of the nucleus at each position.
S5: Use paraformaldehyde to fix the cells on the chip, and use DAPI to stain the nuclei.
S6: Using the fluorescence method, use a confocal microscope to perform a Z-axis tomographic scan from the top to the bottom of the micropillars, and analyze the depth of the DAPI signal of the nucleus between the micropillars. […]
The results measured by the magnetic material method and the fluorescence method are the same (FIG. 33), proving that the accuracy of measuring nuclear hardness by the magnetic material method has been cross-validated by the fluorescence method.

[3] = drug added to culture medium, micropillar chip, light reflection signal (FIG. 32)

C/C1=C\[C@H](C)C[C@H](C)OC(=O)C[C@H](c2ccc(O)cc2)NC(=O)[C@@H](Cc2c(Br)[nH]c3ccccc23)N(C)C(=O)[C@H](C)NC(=O)[C@@H](C)C1 [JAS]
cell mechanical force of the tumor cells [1, 3]: increases
hardness of the tumor cells [1, 3]: become harder
killing effect of immune cells on tumor cells ([1]; tumor cells co-seeded with immune cells (such as NK cells or T cells), under the action of the drug): enhanced

lipopolysaccharide [LPS]
sagging depth of the nucleus between the micropillars ([2]; DAPI, confocal Z-axis scan (fluorescence method)): becomes deeper
nuclear hardness ([2]; magnetic material method and fluorescence method gave the same result (FIG. 33)): softer
